From US11046699B2, “Pyrazolo-pyrimidin-amino-cycloalkyl compounds and their therapeutic uses” (RAPT THERAPEUTICS, INC., priority 2018, dated 2021) come the findings set out here.

Where a name gives a salt, the structure may show the parent alone. Bounds are passed on as bounds.

The target in the first experiment is GCN2 (Homo sapiens, UniProt Q9P2K8). Briefly: GCN2 enzymatic endpoint assay: phosphorylation of GFP-eIF2α measured by TR-FRET (Lanthascreen). The experiment is classed as biochemical. Conditions: GCN2 biochemical IC50; 4 nM GCN2, 2 μM ATP, 80 nM GFP-eIF2α, 90 min RT; read-out: GCN2 activity. The method in brief: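 2 μM ATP, 80 nM GFP-eIF2α, RT, 90 min; EDTA stop. Tb-anti-phospho antibody TR-FRET read, 520/495 nm ratio.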
Sequence of GCN2 (Q9P2K8 whole entry): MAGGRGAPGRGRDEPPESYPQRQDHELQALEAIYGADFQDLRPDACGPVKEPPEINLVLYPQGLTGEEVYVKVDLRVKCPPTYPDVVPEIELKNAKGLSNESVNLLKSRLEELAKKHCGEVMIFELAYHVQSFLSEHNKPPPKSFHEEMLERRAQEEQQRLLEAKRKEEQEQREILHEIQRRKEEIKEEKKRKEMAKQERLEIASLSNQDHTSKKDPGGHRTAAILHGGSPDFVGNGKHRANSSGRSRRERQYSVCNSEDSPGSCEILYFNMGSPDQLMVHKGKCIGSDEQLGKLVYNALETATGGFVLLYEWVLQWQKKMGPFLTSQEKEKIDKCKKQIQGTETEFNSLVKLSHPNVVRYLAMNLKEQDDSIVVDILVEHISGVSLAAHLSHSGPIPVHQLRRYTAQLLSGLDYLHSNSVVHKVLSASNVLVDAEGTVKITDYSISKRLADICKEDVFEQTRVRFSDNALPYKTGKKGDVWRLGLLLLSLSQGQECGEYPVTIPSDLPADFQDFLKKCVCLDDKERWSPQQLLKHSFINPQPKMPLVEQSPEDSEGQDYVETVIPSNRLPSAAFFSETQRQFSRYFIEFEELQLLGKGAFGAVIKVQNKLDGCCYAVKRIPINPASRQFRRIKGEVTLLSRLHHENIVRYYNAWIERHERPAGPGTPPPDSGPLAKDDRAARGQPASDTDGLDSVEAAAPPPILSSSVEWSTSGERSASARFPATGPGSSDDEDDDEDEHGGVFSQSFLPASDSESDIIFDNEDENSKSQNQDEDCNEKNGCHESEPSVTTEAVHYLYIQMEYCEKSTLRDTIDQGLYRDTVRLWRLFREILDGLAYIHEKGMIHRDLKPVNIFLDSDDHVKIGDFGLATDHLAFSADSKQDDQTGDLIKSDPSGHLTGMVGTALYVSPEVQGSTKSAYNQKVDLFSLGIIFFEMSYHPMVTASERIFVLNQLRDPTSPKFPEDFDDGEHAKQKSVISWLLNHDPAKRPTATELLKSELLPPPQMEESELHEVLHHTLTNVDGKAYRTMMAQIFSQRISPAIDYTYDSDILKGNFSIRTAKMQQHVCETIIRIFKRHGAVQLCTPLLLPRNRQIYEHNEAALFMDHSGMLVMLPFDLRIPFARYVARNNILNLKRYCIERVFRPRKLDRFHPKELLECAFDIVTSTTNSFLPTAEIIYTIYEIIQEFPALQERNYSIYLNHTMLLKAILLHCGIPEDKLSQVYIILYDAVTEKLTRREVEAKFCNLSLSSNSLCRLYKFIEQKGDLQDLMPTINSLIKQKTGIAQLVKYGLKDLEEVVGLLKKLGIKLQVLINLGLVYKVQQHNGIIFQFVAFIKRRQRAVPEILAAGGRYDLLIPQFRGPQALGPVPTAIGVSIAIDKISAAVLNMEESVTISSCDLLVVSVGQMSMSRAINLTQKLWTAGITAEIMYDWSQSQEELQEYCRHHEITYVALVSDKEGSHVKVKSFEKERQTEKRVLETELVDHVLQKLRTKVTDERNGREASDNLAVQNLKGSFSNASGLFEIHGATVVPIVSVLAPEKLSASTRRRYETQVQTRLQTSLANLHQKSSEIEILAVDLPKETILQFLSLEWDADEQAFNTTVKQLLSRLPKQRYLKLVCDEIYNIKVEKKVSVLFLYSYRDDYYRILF
For orientation: In TR-FRET formats the signal depends on donor and acceptor labels being close together.
For `COCCNC(=O)[C@@H]1CC[C@@H](Nc2ncc3c(Br)nn(-c4ccc5ncccc5c4)c3n2)C1` [Example 1, (1R,3R)-3-((3-bromo-1-(quinolin-6-yl)-1H-pyrazolo[3,4-d]pyrimidin-6-yl)amino)-N-(2-methoxyethyl)cyclopentane-1-carboxamide], the IC50 was less than 25 nM. Consider `CNC(=O)[C@]1(C)CC[C@@H](Nc2ncc3c(Br)nn(-c4cc(CCO)c5ncccc5c4)c3n2)C1` [Example 29, (1R,3R)-3-((3-bromo-1-(8-(2-hydroxyethyl)quinolin-6-yl)-1H-pyrazolo[3,4-d]pyrimidin-6-yl)amino)-N,1-dimethylcyclopentane-1-carboxamide hydrochloride], for which the IC50 is less than 25 nM.

The experiment is the same for the next values; noted with them: tested as described in Example 77; compound and/or hydrochloride, dihydrochloride or trifluoroacetic acid salt; read-out: IC 50 Activity.
Consider `CNC(=O)[C@]1(CCC(F)(F)F)CC[C@@H](Nc2ncc3c(Br)nn(-c4cc(F)c5ncccc5c4)c3n2)C1` [(1S,3R)-3-[[3-bromo-1-(8-fluoro-6-quinolyl)pyrazolo[3,4-d]pyrimidin-6-yl]amino]-N-methyl-1-(3,3,3-trifluoropropyl)cyclopentane-carboxamide], for which the IC50 is 25 to 200 nM.

`Cn1ccnc1-c1ccc(-n2nc(Br)c3cnc(N[C@@H]4CC[C@@H](C(=O)NCCS(C)(=O)=O)C4)nc32)cc1` [(1R,3R)-3-((3-bromo-1-(4-(1-methyl-1H-imidazol-2-yl)phenyl)-1H-pyrazolo[3,4-d]pyrimidin-6-yl)amino)-N-(2-(methyl-sulfonyl)ethyl)cyclopentane-1-carboxamide]: the IC50 was 500 to 1000 nM. With `CC1(O)CC[C@@H](Nc2ncc3c(Br)nn(-c4cc(CCN)c5ncccc5c4)c3n2)C1` (some centres unmarked), the IC50 fell in the range of 25 to 200 nM. For the compound `CNC(=O)[C@]1(C)CC[C@@H](Nc2ncc3c(Br)nn(-c4ccc(-c5cnn(C)c5C#N)cc4)c3n2)C1` [(1R,3R)-3-[[3-bromo-1-[4-(5-cyano-1-methyl-pyrazol-4-yl)phenyl]pyrazolo[3,4-d]pyrimidin-6-yl]amino]-N,1-dimethyl-cyclopentane-carboxamide], the IC50 was in the range of 25 to 200 nM. Take `CN[C@]1(C)CC[C@@H](Nc2ncc3c(Br)nn(-c4ccc(-c5nnc(C)s5)cc4)c3n2)C1`: the IC50 was 25 to 200 nM. On the same count and under the same terms, the value for `COCCNC(=O)[C@@H]1CC[C@@H](Nc2ncc3c(Br)nn(-c4cc(C(F)(F)F)c5ncccc5c4)c3n2)C1` [(1R,3R)-3-((3-bromo-1-(8-(trifluoromethyl)quinolin-6-yl)-1H-pyrazolo[3,4-d]pyrimidin-6-yl)amino)-N-(2-methoxyethyl)cyclopentane-1-carboxamide] was 200 to 500 nM; that for `CC(C)NC(=O)CN(C)C(=O)[C@@H]1CC[C@@H](Nc2ncc3c(Br)nn(-c4ccc5ncccc5c4)c3n2)C1` [(1R,3R)-3-((3-bromo-1-(quinolin-6-yl)-1H-pyrazolo[3,4-d]pyrimidin-6-yl)amino)-N-(2-(isopropylamino)-2-oxoethyl)-N-methylcyclo-pentane-1-carboxamide] was 25 to 200 nM.

`N#Cc1cc(-n2nc(Br)c3cnc(N[C@@H]4CC[C@@H](C(=O)NCC5CC5)C4)nc32)cc2cccnc12` [(1R,3R)-3-((3-bromo-1-(8-cyanoquinolin-6-yl)-1H-pyrazolo[3,4-d]pyrimidin-6-yl)amino)-N-(cyclopropylmethyl)cyclo-pentane-1-carboxamide]: the IC50 was 25 to 200 nM. Still for that read-out and setting: in the case of `CC[C@H](N)c1cc(Cl)cc(-n2nc(Br)c3cnc(N[C@@H]4CC[C@@](C)(C(=O)NC)C4)nc32)c1` it was 25 to 200 nM; in that of `CNC(=O)[C@]1(C)CC[C@@H](Nc2ncc3c(Br)nn(-c4cc(C#N)cc(OCC(C)O)c4)c3n2)C1` (stereo partly drawn) [(1R,3R)-3-[[3-bromo-1-[3-cyano-5-(2-hydroxypropoxy)phenyl]pyrazolo [3,4-d]pyrimidin-6-yl]amino]-N,1-dimethyl-cyclopentanecarboxamide], 25 to 200 nM; in that of `N#Cc1cc(-n2nc(Br)c3cnc(N[C@@H]4CC[C@H](C(=O)NCC5(F)CNC5)C4)nc32)cc2cccnc12` [(1S,3R)-3-((3-bromo-1-(8-cyanoquinolin-6-yl)-1H-pyrazolo[3,4-d]pyrimidin-6-yl)amino)-N-((3-fluoroazetidin-3-yl)methyl)cyclo-pentane-1-carboxamide], 25 to 200 nM. On the same count and under the same terms, in the case of `CNC(=O)C1(C)CC[C@@H](Nc2ncc3c(Br)nn(-c4cc(F)cc(CO)c4)c3n2)C1` (stereo partly drawn) [(3R)-3-[[3-bromo-1-[3-fluoro-5-(hydroxymethyl)phenyl]pyrazolo[3,4-d]pyrimidin-6-yl]amino]-N,1-dimethyl-cyclopentanecarboxamide] it was 25 to 200 nM; in that of `CNC(=O)[C@]1(C)CC[C@@H](Nc2ncc3c(Br)nn(-c4cnc5c(CCCN)cccc5c4)c3n2)C1` [(1R,3R)-3-[[1-[8-(3-aminopropyl)-3-quinolyl]-3-bromo-pyrazolo[3,4-d]pyrimidin-6-yl]amino]-N,1-dimethyl-cyclopentanecarboxamide], 25 to 200 nM. Still for that read-out and setting: in the case of `COCCNC(=O)[C@@H]1CC[C@@H](Nc2ncc3c(Br)nn(-c4cc(C(F)F)c5ncccc5c4)c3n2)C1` [(1R,3R)-3-((3-bromo-1-(8-(difluoromethyl)quinolin-6-yl)-1H-pyrazolo[3,4-d]pyrimidin-6-yl)amino)-N-(2-methoxyethyl)cyclopentane-1-carboxamide] it was 25 to 200 nM.

For `COCCNS(=O)(=O)[C@@H]1CC[C@@H](Nc2ncc3c(Br)nn(-c4ccc5ncccc5c4)c3n2)C1` [(1R,3R)-3-((3-bromo-1-(quinolin-6-yl)-1H-pyrazolo[3,4-d]pyrimidin-6-yl)amino)-N-(2-methoxyethyl)cyclopentane-1-sulfonamide], the IC50 lay in the range of 25 to 200 nM. As for `CNC(=O)[C@]1(C)CC[C@@H](Nc2ncc3c(Br)nn(-c4cc(CN5C(=O)CNC5=O)c5ncccc5c4)c3n2)C1` [(1R,3R)-3-[[3-bromo-1-[8-[(2,5-dioxo-imidazolidin-1-yl)methyl]-6-quinolyl]pyrazolo[3,4-d]pyrimidin-6-yl]amino]-N,1-dimethyl-cyclopentanecarboxamide], the IC50 lay within 25 to 200 nM. Still for that read-out and setting: in the case of `CNC(=O)[C@]1(C)CC[C@@H](Nc2ncc3c(Br)nn(-c4ccc(-c5nnc(C(=O)NCCN(C)C)s5)cc4)c3n2)C1` [5-[4-[3-bromo-6-[[(1R,3R)-3-methyl-3-(methylcarbamoyl)cyclopentyl]amino]pyrazolo[3,4-d]pyrimidin-1-yl]phenyl]-N-[2-(dimethylamino)ethyl]-1,3,4-thiadiazole-2-carboxamide] it was 25 to 200 nM.

Take `CNC(=O)[C@@H]1CC[C@@H](Nc2ncc3c(Br)nn(-c4cc(F)c(-c5cccnc5)c(C#N)c4)c3n2)C1` [(1R,3R)-3-[[3-bromo-1-[3-cyano-5-fluoro-4-(3-pyridyl)phenyl]pyrazolo[3,4-d]pyrimidin-6-yl]amino]-N-methyl-cyclopentane-carboxamide]: the IC50 lay in the range of 25 to 200 nM. The same measure, in the same setting: in the case of `Cc1nnc(-c2ccc(-n3nc(Br)c4cnc(N[C@@H]5CC[C@@H](NC(=O)[C@H]6CCCCN6)C5)nc43)cc2)s1` it was 25 to 200 nM; in that of `CN1CN(C(=O)[C@]2(C)CC[C@@H](Nc3ncc4c(Br)nn(-c5cc(F)c6ncccc6c5)c4n3)C2)CC1=O` [1-[(1R,3R)-3-[[3-bromo-1-(8-fluoro-6-quinolyl)pyrazolo[3,4-d]pyrimidin-6-yl]amino]-1-methyl-cyclopentanecarbonyl]-3-methyl-imidazolidin-4-one], less than 25 nM; in that of `CNC(=O)[C@]1(C)CC[C@@H](Nc2ncc3c(Br)nn(-c4cc(C5CNC5)c5ncccc5c4)c3n2)C1` [(1R,3R)-3-[[1-[8-(azetidin-3-yl)-6-quinolyl]-3-bromo-pyrazolo[3,4-d]pyrimidin-6-yl]amino]-N,1-dimethyl-cyclopentane-carboxamide], 25 to 200 nM.
